In patent US20240165196A1, “Beta-Lactamase Inhibitors” (VIB VZW, priority 2021, published 2024):

Assays:
Format in all cases: cell-based
[1] = test system: E. coli strain UZ_TEM104; settings: peptide alone
Description: In order to generate a synthetic amyloid peptide capable of inactivating the TEM-1 beta-lactamase enzyme by capitalizing on its aggregation propensity, we applied a previously developed design pattern for synthetic aggregating sequences. This involves a tandem repeat of the APR, each instance flanked by charged amino acids for solubility and separated by a short peptide linker^19,20,23 (FIG. 2G). Previous work has shown that good bacterial uptake can be achieved using one positively charged arginine residue on the N-terminal side of each APR in the tandem and two arginine residues on the C-terminal side. This has the additional benefit of reducing the self-aggregation of the peptides and increasing their solubility prior to target engagement. As before, we employed a single Pro residue as a linker between the APRs and focused on an APR length of seven, extending shorter APRs to this length by incorporating flanking amino acids unless they were obvious aggregation breakers (Arg, Lys, Asp, Glu or Pro, see Table 1). We obtained these peptides from solid phase synthesis, followed by HPLC purification to a purity judged by reverse phase chromatography of at least 90% (Genscript).
(§1) Determination of MIC values using the broth microdilution in the 96-well plate (BD Biosciences, Belgium) according to the EUCAST guideline, which was performed in 96-well polystyrene flat bottom microtiter plates (BD Biosciences). Briefly, a single colony was inoculated into 5 mL Difco™ Mueller Hinton Broth (BD Biosciences Ref 275730) and grown to the end-exponential growth phase in a shaking incubator at 37° C. Cultures were subsequently diluted to an MacFarland (0.5 optical density) then the culture was diluted to reach 10^6 CFU/mL in fresh MHB medium. 50 μl of different concentration of peptides ranging from 128 to 2 μg/mL were serially diluted to the sterile 96-well plate in MHB. 50 μL of the diluted bacteria in MHB were pipetted into 96-well plates to reach the final volume of 100 μL. The bacteria grown with the maximum concentration of carrier and medium were considered as positive and negative controls, respectively. The plates were statically incubated overnight at 37° C. to allow bacterial growth. OD was measured at 590 nm a multipurpose ultraviolet-visible plate reader, and the absorbance of the growth bacteria was measured using absorbance reader. Bacterial growth was also visually inspected and agreed well with the OD reading.

[2] = test system: uro-pathogenic E. coli strain (UPEC strain blaTEM-1); experiment: MIC of ampicillin on the uro-pathogenic strain; settings: 32 μg/ml of TEM3.2 or tazobactam
Experimental: Vehicle alone (0.9% NaCl) was also administered (IV).
as §1

[3] = test system: E. coli strains carrying NDMs; experiment: checkerboard assay (FICI), TEM3.2 and penicillin; settings: strains containing NDMs; significant spread
Description: FIGS. 4A-4K. […] IV—Intravenous, IP—Intraperitoneal, SC—Subcutaneously. The data shown is from a single experiment with 4 animals per group. […] (ns—non significant, #—P>0.05, *—P≤0.05, ***—P≤0.01, ****—P≤0.001). (FIG. 4G) FICI plot as in FIG. 2, for the E. coli strains indicated and the combination of penicillin and the TEM3.2 peptide. […] (FIG. 4J) Same as FIG. 4H for peptide BGAL. (FIG. 4K) Same as FIG. 4H for peptide P33.
As we wondered about the generality of our peptide design approach, we set out to design a peptide to inactivate a structurally unrelated beta-lactamase. […] This enzyme was first isolated from a patient in 200850, by 2010 could be detected in clinical isolates throughout the UK and India^51 and by 2015 was detected in over 70 countries worldwide^52.
For the analysis of the synergy between the peptides with other antibiotics, a checkerboard assay was performed. […] FICI is calculated as the sum of the individual fractional inhibitory concentrations (FICs) for each drug (where MIC A and MIC B denote the MIC of each drug alone, and MIC AA+B and MIC BA+B denote the concentrations of A and B in the drug combination). […]

Substance | MIC peptide [1] | MIC Ampicillin in the presence of additive [2] | synergy with penicillin (FICI) [3]
Ac-RLTAFLHNRRPRLTAFLHNRR-NH2 [TEM3.0] | >100 mg/L |  | 
Ac-RLTAFLHNRRPRLTAFLRQRR-NH2 [TEM3.2] |  | 25 mg/L | little or no synergy
